ChEMBL document CHEMBL4043133, “Discovery of a novel B-cell lymphoma 6 (BCL6)-corepressor interaction inhibitor by utilizing structure-based drug design” (Bioorg Med Chem, 2017)
≈ marks a conversion by molar mass, not a printed value. Each block holds one compound with its values, some of them ahead of it.

Key:
[1] = Permeability of the compound at pH 7.4 at 10 umol/L after 3 hrs by PAMPA; type: physicochemical; details: for permeability: pampa, pH 7.4, 3 h, 10 µM; for Papp at 3 h, 10 µM: PAMPA, pH 7.4, read-out: permeability
BCoR-BCL6 [2] = molecular target: T1, BCoR-BCL6 (Homo sapiens, UniProt P41182)
Description: Inhibition of C-terminal biotin-labelled BCoR/wild-type BCL6 BTB domain (unknown origin) protein-protein interaction by ELISA

[3] = Aqueous solubility of the compound in aqueous buffer at pH 6.8 by UV-absorbance analysis; type: physicochemical
[4] = molecular target: T2, B-cell lymphoma 6 protein (Homo sapiens, UniProt P41182); assay: Displacement of A488-SMRT from BCL6 BTB domain (unknown origin) by fluorescence polarization assay
[5] = molecular target: T2, B-cell lymphoma 6 protein
Description: Binding affinity to wild-type avi-tagged BCL6 BTB domain (unknown origin) by SPR analysis

[6] = Cytotoxicity against human HepG2 cells assessed as intracellular ATP levels at 30 uM after 24 hrs by CellTiter-Glo assay relative to control; type: cell-based; details: read-out: Activity
BCoR-BCL6 [7] = molecular target: T1, BCoR-BCL6; assay: Inhibition of recombinant human BCoR (112 to 753 residues) protein interaction with recombinant GAL4-fused BCL6 (5 to 129 residues) expressed in HEK293T cells measured after 20 hrs by luciferase reporter gene based mammalian two-hybrid assay; type: cell-based, HEK-293T
[8] = Volume of distribution at steady state in mouse at 1 mg/kg, po or 0.1 mg/kg, iv administered as cassette dosing; type: ADME, organism-based; details: in vivo, read-out: Vdss
[9] = Cmax in mouse at 1 mg/kg, po administered as cassette dosing; type: ADME, organism-based; design: dose 1 mg/kg, route oral; details: in vivo
[10] = AUC in mouse at 1 mg/kg, po administered as cassette dosing; type: ADME, organism-based; details: in vivo
[11] = Oral bioavailability in mouse at 1 mg/kg administered as cassette dosing; type: ADME, organism-based; details: in vivo
[12] = Total clearance in mouse at 1 mg/kg, po or 0.1 mg/kg, iv administered as cassette dosing; type: ADME, organism-based; details: in vivo
[13] = Mean residence time in mouse at 1 mg/kg, po administered as cassette dosing; type: ADME, organism-based; details: in vivo
[14] = Tmax in mouse at 1 mg/kg, po administered as cassette dosing; type: ADME, organism-based; details: in vivo

SMILES: O=C(O)c1ccc(Nc2ccc3[nH]c(=O)[nH]c3c2)c(Cl)c1
IC50 (BCoR-BCL6 [2]): 62 µM

SMILES: O=C(O)CC(C(=O)O)N1C(=O)/C(=C2/C(=O)Nc3ccc(Br)cc32)SC1=S (centres undefined)
IC50 (BCoR-BCL6 [2]): 200 µM
IC50 [4]: 212 µM

SMILES: O=C1Cc2cc(Nc3cc(OC4CCOCC4)c([N+](=O)[O-])cc3Cl)ccc2N1
Papp at 3 h, 10 µM [1]: 28.8 ×10⁻⁶ cm/s
viability at 24 h, 30 µM [6]: 99%
solubility [3]: 12 µg/mL (≈ 29.7 µM)

SMILES: O=c1[nH]c2ccc(Nc3cc(NC4CCOCC4)c([N+](=O)[O-])cc3Cl)cc2[nH]1
Papp at 3 h, 10 µM [1]: 10.1 ×10⁻⁶ cm/s
IC50 (BCoR-BCL6 [2]): 0.13 µM
solubility [3]: 0.61 µg/mL (≈ 1.51 µM)

SMILES: O=c1[nH]c2ccc(Nc3cc(OC4CCOCC4)c([N+](=O)[O-])cc3Cl)cc2[nH]1
Papp at 3 h, 10 µM [1]: 4.5 ×10⁻⁶ cm/s
viability at 24 h, 30 µM [6]: 100%
IC50 (BCoR-BCL6 [2]): 0.22 µM
solubility [3]: 18 µg/mL (≈ 44.5 µM)

SMILES: O=c1[nH]c2ccc(Nc3cc(NCCCO)c([N+](=O)[O-])cc3Cl)cc2[nH]1
permeability [1]: Impermeable
IC50 (BCoR-BCL6 [2]): 0.24 µM
solubility [3]: 0.09 µg/mL (≈ 0.238 µM)
IC50 (BCoR-BCL6 [7]): > 100 µM

SMILES: O=C1CCc2cc(Nc3cc(OC4CCOCC4)c([N+](=O)[O-])cc3Cl)ccc2N1
Papp at 3 h, 10 µM [1]: 20.6 ×10⁻⁶ cm/s
Vd [8]: 1.51 L/kg
viability at 24 h, 30 µM [6]: 83%
Cmax [9]: 233 ng/mL
IC50 (BCoR-BCL6 [2]): 0.1 µM
AUC [10]: 1270 ng·h/mL
bioavailability [11]: 79.9%
solubility [3]: 12 µg/mL (≈ 28.7 µM)
clearance [12]: 10.5 mL/min/kg
MRT [13]: 3.3 h
Tmax [14]: 2 h
IC50 (BCoR-BCL6 [7]): 0.72 µM

SMILES: CCOC(=O)CCNc1cc(Nc2ccc3[nH]c(=O)[nH]c3c2)c(Cl)cc1[N+](=O)[O-]
Papp at 3 h, 10 µM [1]: 15.1 ×10⁻⁶ cm/s
IC50 (BCoR-BCL6 [2]): 0.43 µM
solubility [3]: 0.42 µg/mL (≈ 1 µM)

SMILES: COC(=O)c1ccc(Nc2ccc3[nH]c(=O)[nH]c3c2)c(Cl)c1
IC50 (BCoR-BCL6 [2]): 8.6 µM

SMILES: N#Cc1ccc(Nc2ccc3[nH]c(=O)[nH]c3c2)c(Cl)c1 [TP-021n]
IC50 (BCoR-BCL6 [2]): 110 µM

Continued, values first:

permeability [1]: Impermeable
IC50 (BCoR-BCL6 [2]): 0.13 µM
solubility [3]: > 72 µg/mL
SMILES: O=C(O)CCNc1cc(Nc2ccc3[nH]c(=O)[nH]c3c2)c(Cl)cc1[N+](=O)[O-]

IC50 (BCoR-BCL6 [2]): 4.5 µM
Kd [5]: 5 µM
SMILES: O=c1[nH]c2ccc(Nc3ccc([N+](=O)[O-])cc3Cl)cc2[nH]1

IC50 (BCoR-BCL6 [2]): 43 µM
SMILES: NC(=O)c1ccc(Nc2ccc3[nH]c(=O)[nH]c3c2)c(Cl)c1

IC50 (BCoR-BCL6 [2]): 69 µM
SMILES: Nc1cc(Nc2ccccc2)c2nonc2c1[N+](=O)[O-]

IC50 (BCoR-BCL6 [2]): > 300 µM
SMILES: O=c1[nH]c2ccc(Nc3ccc([N+](=O)[O-])cc3C(F)(F)F)cc2[nH]1

Papp at 3 h, 10 µM [1]: 14.7 ×10⁻⁶ cm/s
IC50 (BCoR-BCL6 [2]): 0.15 µM
solubility [3]: < 0.23 µg/mL
SMILES: O=c1[nH]c2ccc(Nc3cc(NCc4cccnc4)c([N+](=O)[O-])cc3Cl)cc2[nH]1

IC50 (BCoR-BCL6 [2]): 14 µM
Kd [5]: 24 µM
SMILES: O=[N+]([O-])c1c(NCCCO)cc(Nc2ccc(F)cc2)c2nonc12

IC50 (BCoR-BCL6 [2]): 4.3 µM
SMILES: N#Cc1cc([N+](=O)[O-])ccc1Nc1ccc2[nH]c(=O)[nH]c2c1

IC50 (BCoR-BCL6 [2]): 83 µM
SMILES: O=c1[nH]c2ccc(Nc3ccc([N+](=O)[O-])cc3Br)cc2[nH]1
